The values below are quoted from earlier work in patent EP0271041A2, “Atrial peptide derivatives” (ABBOTT LABORATORIES, priority 1986, dated 1988).

Bridges are numbered along the chain shown (N, C = ends). Where no end group is shown, it is not given here.

For the series the following is noted: relative to furosemide.

On to “alpha-human atrial natriuretic polypeptide (SLRRSSCFGGRMDRIGAQSGLGCNSFRY; disulfide 7-23 (inferred); ends not checked; UniProt P01160 124-151, looked up) [alpha-hANP, polypeptide consisting of 28 amino acids isolated from human atrium]”, for which the “diuretic action, times as strong as that of furosemide” value is “about 1000 times”.
